Columns and labels:
[1] = test system: methicillin resistant S. aureus Mu50 strain (S. aureus ATCC700699) biofilm; test: Biofilm susceptibility to vancomycin, pre-treatment regimen (biofilm formed in presence of compound, then vancomycin); assay type: cell-based; conditions: for Pretreat (100 μM): percentage Colony Forming Units (CFU's) per biofilm: compound 100 μM during biofilm formation, then VAN 20 μg/ml, compared to the untreated (negative) control; for EC50: concentration needed to get 50% killing compared to antibiotic alone (VAN 20 μg/ml) and complete killing, read-out: Pretreat. (EC50)
Outline: (§1)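 Mu50 biofilms from 10^8 CFU/ml inoculum (4 h adhesion, then 20 h, 37 °C). Pre-treatment: compound (0.1-250 μM) present during biofilm formation, then vancomycin 20 μg/ml alone 24 h; combination: mature biofilm given vancomycin 20 μg/ml plus compound 24 h. Survivors counted by plating versus vancomycin alone.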

[2] = test system: methicillin resistant S. aureus Mu50 strain (S. aureus ATCC700699) biofilm; test: Biofilm susceptibility to vancomycin, combination treatment regimen (mature biofilm treated with compound plus vancomycin); assay type: cell-based; conditions: for Combin. (100 μM): percentage Colony Forming Units (CFU's) per biofilm: compound 100 μM together with VAN 20 μg/ml on mature biofilm, compared to the untreated (negative) control; for EC50: concentration needed to get 50% killing compared to antibiotic alone (VAN 20 μg/ml) and complete killing, read-out: Combin. (EC50)
Outline: as §1

O=C(NC[C@]1(O)CO[C@H](CNC(=O)c2ncccn2)[C@H]1O)c1ccccc1 [compound 203, N-(((2R,3R,4S)-4-(benzamidomethyl)-3,4-dihydroxytetrahydrofuran-2-yl)methyl)pyrimidine-2-carboxamide] was tested, and the “Pretreat (100 μM): percentage Colony Forming Units (CFU's) per biofilm” value [1] was 41.20 percentage and the “Combin. (100 μM): percentage Colony Forming Units (CFU's) per biofilm” value [2] was 31.95 percentage.
O=C(NC[C@]1(O)CO[C@H](CNC(=O)c2ccncn2)[C@H]1O)c1ccccc1 [compound 204, N-(((2R,3R,4S)-4-(benzamidomethyl)-3,4-dihydroxytetrahydrofuran-2-yl)methyl)pyrimidine-4-carboxamide] was tested, and the “Pretreat (100 μM): percentage Colony Forming Units (CFU's) per biofilm” value [1] was 13.04 percentage and the “Combin. (100 μM): percentage Colony Forming Units (CFU's) per biofilm” value [2] was 15.85 percentage.
O=C(NC[C@H]1OC[C@@](O)(CNC(=O)c2ccccc2)[C@@H]1O)c1cncnc1 [compound 205, N-(((2R,3R,4S)-4-(benzamidomethyl)-3,4-dihydroxytetrahydrofuran-2-yl)methyl)pyrimidine-5-carboxamide] was tested, and the “Pretreat (100 μM): percentage Colony Forming Units (CFU's) per biofilm” value [1] was 6.699 percentage and the “Combin. (100 μM): percentage Colony Forming Units (CFU's) per biofilm” value [2] was 16.51 percentage.
With O=C(NC[C@]1(O)CO[C@H](CNC(=O)c2cccnn2)[C@H]1O)c1ccccc1 [compound 206, N-(((2R,3R,4S)-4-(benzamidomethyl)-3,4-dihydroxytetrahydrofuran-2-yl)methyl)pyridazine-3-carboxamide] the “Pretreat (100 μM): percentage Colony Forming Units (CFU's) per biofilm” value [1] was 6.460 percentage and the “Combin. (100 μM): percentage Colony Forming Units (CFU's) per biofilm” value [2] was 15.17 percentage.
In the case of O=C(NC[C@H]1OC[C@@](O)(CNC(=O)c2ccccc2)[C@@H]1O)c1ccnnc1 [compound 207, N-(((2R,3R,4S)-4-(benzamidomethyl)-3,4-dihydroxytetrahydrofuran-2-yl)methyl)pyridazine-4-carboxamide], the “Pretreat (100 μM): percentage Colony Forming Units (CFU's) per biofilm” value [1] is reported as 6.950 percentage, the EC50 [1] is reported as 7.28 µM and the “Combin. (100 μM): percentage Colony Forming Units (CFU's) per biofilm” value [2] is reported as 13.70 percentage. It also gave an EC50 [2] of 8.54 µM.
In the case of O=C(NC[C@]1(O)CO[C@H](CNC(=O)c2cnccn2)[C@H]1O)c1ccccc1 [compound 208, N-(((2R,3R,4S)-4-(benzamidomethyl)-3,4-dihydroxytetrahydrofuran-2-yl)methyl)pyrazine-2-carboxamide], the “Pretreat (100 μM): percentage Colony Forming Units (CFU's) per biofilm” value [1] is reported as 10.52 percentage and the “Combin. (100 μM): percentage Colony Forming Units (CFU's) per biofilm” value [2] is reported as 18.77 percentage.
In the case of Cn1nccc1C(=O)NC[C@H]1OC[C@@](O)(CNC(=O)c2ccccc2)[C@@H]1O [compound 209, N-(((2R,3R,4S)-4-(benzamidomethyl)-3,4-dihydroxytetrahydrofuran-2-yl)methyl)-1-methyl-1H-pyrazole-5-carboxamide], the “Pretreat (100 μM): percentage Colony Forming Units (CFU's) per biofilm” value [1] is reported as 22.47 percentage, the EC50 [1] is reported as 29.3 µM and the “Combin. (100 μM): percentage Colony Forming Units (CFU's) per biofilm” value [2] is reported as 21.74 percentage. For the same molecule, the EC50 [2] was 23.5 µM.
In the case of Cn1cncc1C(=O)NC[C@H]1OC[C@@](O)(CNC(=O)c2ccccc2)[C@@H]1O [compound 210, N-(((2R,3R,4S)-4-(benzamidomethyl)-3,4-dihydroxytetrahydrofuran-2-yl)methyl)-1-methyl-1H-imidazole-5-carboxamide], the “Pretreat (100 μM): percentage Colony Forming Units (CFU's) per biofilm” value [1] is reported as 22.10 percentage, the EC50 [1] is reported as 52.3 µM and the “Combin. (100 μM): percentage Colony Forming Units (CFU's) per biofilm” value [2] is reported as 26.95 percentage. It also gave an EC50 [2] of 58.2 µM.
In the case of CS(=O)(=O)NC[C@H]1OC[C@@](O)(CNC(=O)c2ccccc2)[C@@H]1O [compound 211, N-(((3S,4R,5R)-3,4-dihydroxy-5-(methylsulfonamidomethyl)tetrahydrofuran-3-yl)methyl)benzamide], the “Pretreat (100 μM): percentage Colony Forming Units (CFU's) per biofilm” value [1] is reported as 31.02 percentage and the “Combin. (100 μM): percentage Colony Forming Units (CFU's) per biofilm” value [2] is reported as 38.03 percentage.
For CCS(=O)(=O)NC[C@H]1OC[C@@](O)(CNC(=O)c2ccccc2)[C@@H]1O [compound 212, N-(((3S,4R,5R)-5-(ethylsulfonamidomethyl)-3,4-dihydroxytetrahydrofuran-3-yl)methyl)benzamide], the “Pretreat (100 μM): percentage Colony Forming Units (CFU's) per biofilm” value [1] was 50.68 percentage and the “Combin. (100 μM): percentage Colony Forming Units (CFU's) per biofilm” value [2] was 52.64 percentage.
With CC(C)S(=O)(=O)NC[C@H]1OC[C@@](O)(CNC(=O)c2ccccc2)[C@@H]1O [compound 213, N-(((3S,4R,5R)-3,4-dihydroxy-5-(((1-methylethyl)sulfonamido)methyl)tetrahydrofuran-3-yl)methyl)benzamide] the “Pretreat (100 μM): percentage Colony Forming Units (CFU's) per biofilm” value [1] was 28.32 percentage and the “Combin. (100 μM): percentage Colony Forming Units (CFU's) per biofilm” value [2] was 32.67 percentage.
For O=C(NC[C@]1(O)CO[C@H](CNS(=O)(=O)C(F)(F)F)[C@H]1O)c1ccccc1 [compound 214, N-(((3S,4R,5R)-3,4-dihydroxy-5-(((trifluoromethyl)sulfonamido)methyl)tetrahydrofuran-3-yl)methyl)benzamide], the “Pretreat (100 μM): percentage Colony Forming Units (CFU's) per biofilm” value [1] was 29.28 percentage and the “Combin. (100 μM): percentage Colony Forming Units (CFU's) per biofilm” value [2] was 42.85 percentage.
In the case of O=C(NC[C@]1(O)CO[C@H](CNS(=O)(=O)c2ccccc2)[C@H]1O)c1ccccc1 [compound 215, N-(((3S,4R,5R)-3,4-dihydroxy-5-(phenylsulfonamidomethyl)tetrahydrofuran-3-yl)methyl)benzamide], the “Pretreat (100 μM): percentage Colony Forming Units (CFU's) per biofilm” value [1] is reported as 22.23 percentage and the “Combin. (100 μM): percentage Colony Forming Units (CFU's) per biofilm” value [2] is reported as 31.29 percentage.
For Cc1ccc(S(=O)(=O)NC[C@H]2OC[C@@](O)(CNC(=O)c3ccccc3)[C@@H]2O)cc1 [compound 216, N-(((3S,4R,5R)-3,4-dihydroxy-5-(((4-methylphenyl)sulfonamido)methyl)tetrahydrofuran-3-yl)methyl)benzamide], the “Pretreat (100 μM): percentage Colony Forming Units (CFU's) per biofilm” value [1] was 16.96 percentage and the “Combin. (100 μM): percentage Colony Forming Units (CFU's) per biofilm” value [2] was 25.95 percentage.
For O=C(NC[C@]1(O)CO[C@H](CNS(=O)(=O)c2ccc(Cl)cc2)[C@H]1O)c1ccccc1 [compound 217, N-(((3S,4R,5R)-5-(((4-chlorophenyl)sulfonamido)methyl)-3,4-dihydroxytetrahydrofuran-3-yl)methyl)benzamide], the “Pretreat (100 μM): percentage Colony Forming Units (CFU's) per biofilm” value [1] was 14.04 percentage, the EC50 [1] was 23.5 µM and the “Combin. (100 μM): percentage Colony Forming Units (CFU's) per biofilm” value [2] was 14.85 percentage. For the same molecule, the EC50 [2] was 27.8 µM.
O=C(NC[C@]1(O)CO[C@H](CNS(=O)(=O)c2ccccc2Cl)[C@H]1O)c1ccccc1 [compound 218, N-(((3S,4R,5R)-5-(((2-chlorophenyl)sulfonamido)methyl)-3,4-dihydroxytetrahydrofuran-3-yl)methyl)benzamide] was tested, and the “Pretreat (100 μM): percentage Colony Forming Units (CFU's) per biofilm” value [1] was 35.03 percentage and the “Combin. (100 μM): percentage Colony Forming Units (CFU's) per biofilm” value [2] was 26.88 percentage.
O=C(NC[C@]1(O)CO[C@H](CNS(=O)(=O)c2ccc(-c3ccccc3)cc2)[C@H]1O)c1ccccc1 [compound 219, N-(((3S,4R,5R)-5-(([1,1′-biphenyl]-4-sulfonamido)methyl)-3,4-dihydroxytetrahydrofuran-3-yl)methyl)benzamide] was tested, and the “Pretreat (100 μM): percentage Colony Forming Units (CFU's) per biofilm” value [1] was 16.13 percentage and the “Combin. (100 μM): percentage Colony Forming Units (CFU's) per biofilm” value [2] was 17.02 percentage.
For O=C(NC[C@]1(O)CO[C@H](CNS(=O)(=O)c2ccccc2-c2ccccc2)[C@H]1O)c1ccccc1 [compound 220, N-(((3S,4R,5R)-5-(([1,1′-biphenyl]-2-sulfonamido)methyl)-3,4-dihydroxytetrahydrofuran-3-yl)methyl)benzamide], the “Pretreat (100 μM): percentage Colony Forming Units (CFU's) per biofilm” value [1] was 25.63 percentage and the “Combin. (100 μM): percentage Colony Forming Units (CFU's) per biofilm” value [2] was 29.85 percentage.

From US10023602B2, “Hamamelitannin analogues and uses thereof” (Universiteit Gent, priority 2014, dated 2018)
